# Laboratory results as given in patent US20120022024A1, “ANTI-BACTERIAL COMPOSITIONS AND METHODS INCLUDING TARGETING VIRULENCE FACTORS OF STAPHYLOCOCCUS AUREUS” (priority 2009, published 2012).
# Where two headings read alike, the source gives them in different places.
# Key:
# [1] = system: S. aureus; details: non-pigmented S. aureus after treatment versus normally pigmented; cited from earlier work
# [2] = system: S. aureus; details: treated mice compared to a control group; cited from earlier work
# [3] = system: S. aureus; details: non-pigmented S. aureus after treatment versus normally pigmented; cited from earlier work; remark: listed apart in the source
# [4] = biological target: S. aureus CrtM (dehydrosqualene synthase) (Staphylococcus aureus, UniProt A9JQL9); assay: CrtM enzyme inhibition assay
# [5] = system: staphyloxanthin (STX) biosynthesis in S. aureus; assay: Staphyloxanthin biosynthesis inhibition assay; format: cell-based, Staphylococcus aureus; details: Staphylococcus aureus
# Experimental: The question next arises: how potent are these compounds in inhibiting STX biosynthesis in S. aureus? We thus treated S. aureus bacteria with serially diluted compounds at 37° C. for 3 days, after which the STX pigment was extracted with methanol. Optical densities were measured at 450 nm and IC50 values for inhibition of pigment formation for each compound were calculated using a standard dose-response curve. The rank ordered IC50 values of the 38 compounds investigated are shown in Table 7 and dose-response curves of representative compounds are shown in FIG. 2.
# The S. aureus strain used was the WT clinical isolate (Pig1) (4). S. aureus was cultured in THB (1 mL) in the presence of inhibitor compounds for 72 h, in duplicate. Cells were then centrifuged and washed twice with PBS. STX was extracted with MeOH and the O.D. was determined at 450 nm using a Perkin Elmer MBA 2000 (Norwalk, Conn.) spectrophotometer.
# [6] = biological target: T1, human squalene synthase (hSQS) (Homo sapiens, UniProt P37268); assay: Human SQS enzyme inhibition assay; format: biochemical; details: for IC50: Table 8; for CrtM/hSQS selectivity: IC50(hSQS)/IC50(CrtM); for pIC50 (CrtM) − pIC50 (hSQS): experimental data; for relative CrtM/hSQS selectivity: selectivity of compound/selectivity of 1
# T1 construct: a double truncated protein lacking residues 31 at the N-terminus and 46 at the C-terminus; six-histidine tag (pET-28a) (N); made in house; host or cells: E. coli BL21 (DE3) RP
# T1 sequence (P37268 31-370 limits assumed): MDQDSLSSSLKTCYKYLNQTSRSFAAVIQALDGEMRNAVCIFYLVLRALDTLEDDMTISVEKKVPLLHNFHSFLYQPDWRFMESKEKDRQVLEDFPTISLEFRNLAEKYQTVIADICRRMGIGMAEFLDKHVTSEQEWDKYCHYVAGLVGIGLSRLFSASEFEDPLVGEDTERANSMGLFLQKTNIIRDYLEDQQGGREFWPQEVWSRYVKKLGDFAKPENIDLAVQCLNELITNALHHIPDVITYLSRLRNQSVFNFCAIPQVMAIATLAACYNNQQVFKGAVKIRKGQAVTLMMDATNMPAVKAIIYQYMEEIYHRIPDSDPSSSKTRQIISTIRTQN
# Experimental: The corresponding amplified insert was initially cloned in the vector pGEMT® (Promega). Plasmid was digested with the endonucleases NdeI and BamHI, and the resulting fragment was cloned into the bacterial expression vector pET-28a to give pET28a-HsSQS which was used to transform E. coli BL21 (DE3) RP strain (Novagen) for overexpression.
# Bacteria expressing the constructs were cultured in Luria-Bertani medium supplemented with kanamycin (30 μg/ml) and chloramphenicol (34 μg/ml) at 37° C., until the cells reached an OD of 0.4 at 600 nm, and were then induced at 37° C. for 4 h by incubation with 1 mM isopropyl-1-thio-β-D-galactopyranoside. Cells were harvested by centrifugation (10 min, 4000 rpm) and resuspended in 10 ml of lysis/elution buffer (20 mM […], pH 7.4, 10 mM CHAPS, 2 mM MgCl2, 10% glycerol, 10 mM—mercaptoethanol, 500 mM NaCl, 10 mM imidazole, and a protease inhibitor cocktail (Roche), disrupted by sonication, and centrifuged at 16,000 rpm for 30 min. The supernatant ([…]) was then applied to a HiTrap Nickel-Chelating HP column (Amersham Biosciences). Enzyme purification was performed according to the manufacturer's instructions using a Pharmacia FPLC system. Unbound protein was washed off with 50 mM imidazole, then the His6-HsSQS was eluted with 1M imidazole.
# SQS activity was based on measuring the conversion of [3H]FPP to [3H]squalene. […] The region of the squalene band was scraped and immersed in Hydrofluor liquid scintillation fluid, and assayed for radioactivity. IC50 values were calculated from the hyperbolic plot of percent of inhibition versus inhibitor concentration, using GraphPad PRISM®.
# [7] = 72 h, read-out: Staphyloxanthin IC50
# [8] = read-out: CrtM enzyme experimental activity IC50, Table 5
# Sequence of S. aureus CrtM (dehydrosqualene synthase) (A9JQL9 whole entry): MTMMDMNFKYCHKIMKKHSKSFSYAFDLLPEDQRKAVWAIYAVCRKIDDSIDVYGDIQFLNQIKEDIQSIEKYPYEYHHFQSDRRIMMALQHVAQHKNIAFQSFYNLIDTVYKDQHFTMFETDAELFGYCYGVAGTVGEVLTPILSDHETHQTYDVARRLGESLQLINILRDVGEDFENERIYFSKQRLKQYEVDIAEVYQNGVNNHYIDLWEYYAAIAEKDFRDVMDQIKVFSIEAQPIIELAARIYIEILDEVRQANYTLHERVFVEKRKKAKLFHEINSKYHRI
SMILES,IC50 ([5]; read-out: IC50(STX)) [µM],IC50 [4] [µM],also measured
"O=P([O-])([O-])C(CCCc1cccc(Oc2ccccc2)c1)S(=O)(=O)[O-].[K+].[K+].[K+] (centres unmarked) [Compound 1, 1-Phosphono-4-(3-phenoxyphenyl)butylsulfonic acid tripotassium salt, reference compound]",0.11,,"survival in freshly isolated human whole blood [1]: less able to survive in freshly isolated human whole blood; bacterial counts in kidneys reduced / bacterial growth inhibited [2]: 98%; susceptibility to killing by hydrogen peroxide [3]: much more susceptible to killing by hydrogen peroxide; IC50 ([4]; read-out: IC50 against CrtM): 7.9 µM; IC50 [5, 7]: 0.11 µM; IC50 ([5]; read-out: IC50 (STX)): 0.11 µM; IC50 ([5]; read-out: IC50 for STX biosynthesis): 0.11 µM"
"O=P([O-])([O-])C(CCCc1ccc(-c2ccc(C(F)(F)F)cc2)cc1)P(=O)([O-])[O-].[K+].[K+].[K+].[K+] [Compound 3, 4-[4-(4-Trifluoromethylphenyl)phenyl)]butyldiphosphonic acid dipotassium salt]",,,"Ki [4]: ~0.0005 µM; IC50 [4, 8]: 0.18 µM; IC50 ([4]; read-out: IC50 against CrtM): 0.2 µM; IC50 [6]: 0.003 µM; IC50 [5, 7]: 1.1 µM"
O=P([O-])([O-])C(CCCc1ccc(-c2ccc(C(F)(F)F)cc2)cc1)P(=O)([O-])[O-].[K+].[K+].[K+].[K+] [Compound 3],,,CrtM enzyme experimental activity pIC50 ([4]; Table 5): 6.74; CrtM/hSQS selectivity [6]: 0.014; pIC50 (CrtM) − pIC50 (hSQS) [6]: −1.86; relative CrtM/hSQS selectivity [6]: 4.8
CP(=O)([O-])C(CCCc1ccc(-c2ccccc2)cc1)P(=O)([O-])[O-].[K+].[K+].[K+] (centres unmarked) [Compound 4],,,CrtM/hSQS selectivity [6]: 0.014; relative CrtM/hSQS selectivity [6]: 4.7
"O=P([O-])([O-])C(Cc1cccc(Oc2ccccc2)c1)S(=O)(=O)[O-].[K+].[K+].[K+] (centres unmarked) [Compound 14, 1-Phosphono-2-(3-phenoxyphenyl)ethylsulfonic acid tripotassium salt]",,,"IC50 [4, 8]: 1700 µM; CrtM/hSQS selectivity [6]: 0.0022; IC50 [6]: 3.7 µM; pIC50 (CrtM) − pIC50 (hSQS) [6]: −2.66; relative CrtM/hSQS selectivity [6]: 0.8; IC50 [5, 7]: 33.9 µM"
"O=P([O-])([O-])C(CCc1cccc(Oc2ccccc2)c1)S(=O)(=O)[O-].[K+].[K+].[K+] (centres unmarked) [Compound 15, 1-Phosphono-3-(3-phenoxyphenyl)propylsulfonic acid tripotassium salt]",,> 500,"CrtM enzyme experimental activity pIC50 ([4]; Table 5): 3.3; IC50 [4, 8]: 500 µM; CrtM/hSQS selectivity [6]: 0.0011; IC50 [6]: 0.55 µM; pIC50 (CrtM) − pIC50 (hSQS) [6]: −2.96; relative CrtM/hSQS selectivity [6]: 0.4; IC50 [5, 7]: 20.4 µM"
O=C(CP(=O)(O)O)N(O)CCCc1cccc(Oc2ccccc2)c1 [compound 808],0.108,67.5,"IC50 ([5]; read-out: IC50(STX), cell activity): 0.11 µM"
O=C(NO)C(CCCc1cccc(Oc2ccccc2)c1)P(=O)(O)O (centres unmarked) [compound 809],4.23,859,
O=C(CP(=O)(O)O)N(O)Cc1cccc(-c2cccc(-c3ccccc3)c2)c1 [compound 810],158,597,
Cc1ccc(-c2ccc(CCCN(O)C(=O)CP(=O)(O)O)cc2)cc1 [compound 826],4.11,> 1500,
O=C(CP(=O)(O)O)NCCCc1cccc(Oc2ccccc2)c1 [compound 830],0.008,8.9,
O=C(CCCCc1ccc(Oc2ccccc2)cc1)CP(=O)(O)O [compound 839],28,1520,
O=P(O)(O)CS(=O)(=O)NCCCc1cccc(Oc2ccccc2)c1 [compound 841],> 500,1640,
CC(C)(C(=O)NCCCc1cccc(Oc2ccccc2)c1)P(=O)(O)O [compound 847],> 500,204,
CN(CCCc1cccc(Oc2ccccc2)c1)C(=O)CP(=O)(O)O [compound 848],8.6,193,
O=C(CS(=O)(=O)O)NCCCc1cccc(Oc2ccccc2)c1 [compound 884],15,171,
O=P(O)(O)CP(=O)(O)CCCCc1cccc(Oc2ccccc2)c1 [compound 885],0.44,45,
O=C(CP(=O)(O)O)NCCCc1cccc(Oc2ccc(Cl)c(Cl)c2)c1 [compound 886],0.04,7,
O=C(CP(=O)(O)O)OCCCc1cccc(Oc2ccccc2)c1 [compound 887],1.5,1190,
O=C(CP(=O)(O)O)NCCc1cccc(Oc2ccccc2)c1 [compound 897],3,323,
O=C(CP(=O)(O)O)NCCCCc1cccc(Oc2ccccc2)c1 [compound 898],35,1080,
O=C(CP(=O)(O)O)NCCCc1cccc(Oc2ccc(Cl)cc2)c1 [compound 926],0.028,15.3,
O=C(CP(=O)(O)O)N(O)CCCc1cccc(Oc2ccc(Cl)c(Cl)c2)c1 [compound 927],0.042,67.2,
